Tested on: human skin fibroblasts
Assay: Collagen synthesis by human skin fibroblasts (3H-proline incorporation into collagenous protein)
Type: cell-based
Settings: carnosine alone 60 mM, 48 h (FIG. 1 column 11)
Protocol: After starving for up to 6 hours, cells were exposed to a mixture of BMF and carnosine or the appropriate controls for 48 hours. Tritiated proline (L-[5-^3H] proline) was included in the culture medium and at the end of the experiments, the amount of ^3H proline incorporated into collagenous protein was determined as an index of collagen synthesis. A subset of cultures were treated with […] for the final 6-8 hours of the culture to determine the collagen-specific nature of incorporated radioactivity.
Human diploid ftbroblasts were obtained from neonatal foreskins collected from the Womens' and Chldrens' Hospital (North Adelaide, Australia). […]
Collagen was purified from the culture medium by successive precipitation with salt solutions at acid and neutral pH. […] The amount of radioactivity in the samples was determined using a Stcinillation counter (Wailac) as an index of the amount of new collagen synthesised. The radioactivity in each replicate well was normalised as a percentage of the average radioactivity present in the control wells from each experiment. […]

Compound: NCCC(=O)N[C@@H](Cc1c[nH]cn1)C(=O)O [Carnosine, beta-alanyl-L-histidine]
- collagen synthesis: did not stimulate collagen synthesis

From US20070275084A1, “Compositions And Methods For The Treatment Of Skin Damage” (priority 2003, published 2007)
